The values below are quoted from earlier work in patent US4318905A, “Nonapeptide and decapeptide agonists of luteinizing hormone releasing hormone containing heterocyclic amino acid residues” (Syntex (U.S.A.) Inc., priority 1980, dated 1982).

The conditions of this data set: Gly in the 6-position replaced by a D-amino acid.
On to [D-Ala^6 ]LHRH, for which the “activity relative to LH-RH” value is “increased activity”.

Turning to [D-Phe^6 ]LHRH, the “activity relative to LH-RH” value is listed as “increased activity”.

As for [D-Trp^6 ]LHRH, the “activity relative to LH-RH” value is recorded as “increased activity”.
